These results are taken from patent US11572402B2, “Method for promoting diversification of antibody variable region” (Chiome Bioscience Inc., priority 2017, dated 2023).

Each structure is given as a SMILES string. Entries after “also recorded” stand apart in the source; their conditions may differ.

The subject of this test is hVEGF-A-#33 cell line. Put plainly: Screening for diversification-promoting compounds by FCM (hIgG+_hVEGF-A− population). The following applies: hVEGF-A-#33 cells expressing human IgG, versus negative control CS(−). Type of test: cell-based, chicken. As for the experimental part:
Frozen stocks of the hVEGF-A #33 cell line and the hVEGF-A #44 cell line (3.0×10^6 cells) were each awaken with a CS(-) medium, using a 25 cm^2 Flask (Corning, 430639), and were then cultured in a CO2 incubator (SANYO CO2 Incubator MCO-20AIC, 39.5° C., 5% CO2). On the following day, the cells were seeded on a 6-well dish (Nunc, 140675) to a cell density of 1.0×10^4 cells/mL (wherein the cell concentration and the survival rate were measured using CASY cell counter (Nepa Gene)). The cells were cultured in a CS(+) medium, in the presence or absence of a PI3Kα inhibitor ([…]: 10 μM, PI3Kα Inhibitor 2: 500 nM). Moreover, after the cells had been cultured for 2 days, individual samples were subcultured under the same conditions to result in a cell density of 1.0×10^4 cells/mL. Further, after completion of the culture for 3 days, individual samples were subcultured under the same conditions to result in a cell density of 6.0×10^4 cells/mL, and the culture was continued. After completion of the culture for 2 days (Day 7 of the culture), individual samples were centrifuged to remove a supernatant, and the residue was then suspended in a CS(+) medium supplemented with 1 μM FK-506 (hereinafter referred to as a “CS/FK medium”). The suspension was centrifuged again to remove a supernatant. This washing step was carried out repeatedly twice, and individual samples were then suspended in a CS/FK medium supplemented with AF647-labeled hVEGF-A (10 nM) and 2,000-fold diluted Goat Anti-Human IgG-PE. The light was shielded, and the obtained suspension was then reacted at 4° C. for 30 min. After completion of the staining, the reaction mixture was washed with a CS/FK medium twice, and each sample was then suspended in the CS/FK medium. Thereafter, using FACS Aria Fusion (BD), FCM and single cell sorting was carried out. Dead cells were removed using FSC-SSC plot. A plot, in which the vertical axis indicated AF647 (AF647-labeled hVEGF-A) and the longitudinal axis indicated PE (Goat Anti-Human IgG-PE), was developed, and the percentage of PE+(hIgG+)/AF647-(hVEGF-A-) cells was then calculated. In order to make a comparison regarding the number of cells with improved antigen-binding ability according to Affinity Maturation under individual conditions, Affinity Maturation Gate was established according to the following criteria. First, the plot was converted to a contour plot in FCM analysis, and a trapezoid gate having an inclination that was in parallel with the contour of a population in which the most cells were gathered (hereinafter referred to as a “main population”) was established. […] At that time, the vertex of the trapezoid gate was set to be overlapped with the mean value MFI of the main population, and then, a cell population having low antigen-binding ability and a cell population having a low expression level of antibody were set not to enter the gate. The percentage of clones with improved antigen-binding ability was calculated by counting the number of cells existing in this Affinity Maturation Gate and then dividing the obtained value by the total number of the analyzed cells. […]

Regarding `Cc1nc(NC(=O)N2CCC[C@H]2C(N)=O)sc1-c1csc(C(C)(C)C)n1` [A66], the “percentage of hIgG+_hVEGF-A− cell population (diversification-promoting effect)” value is given as “increased in comparison to the negative control (CS(−)); also recorded: highest diversification-promoting effects”.
